Reference: US10780061B2, “Composition comprising farnesol and use thereof” (Daegu Gyongbuk Institute of Science and Technology, priority 2014, dated 2020)

How the values were obtained:
[1] = GA muscle mass, lean mass and heart mass of mice according to farnesol administration; format: in vivo, mouse
Protocol: 22-month-old female mice (weighing 30 g) are fed with a control diet and a farnesol diet for 4 months. That is, 22-month-old mice are fed for 4 months, and then 26-month-old mice are analyzed.

[2] = Energy expenditure of old mice (Oxylet calorimetry); format: in vivo, mouse; conditions: farnesol diet 4 months
Protocol: 22-month-old female mice (weighing 30 g) are fed with a control diet and a farnesol diet for 4 months. That is, 22-month-old mice are fed for 4 months, and then 26-month-old mice are analyzed. […] The same mouse is used as a control group, except that it is fed with a diet containing no farnesol. Muscle strength, energy expenditure, glucose tolerance, and fat accumulation of each mouse are evaluated. […] To measure energy expenditures of old mice administered with farnesol, mice are bred in a measurement apparatus, Oxylet system (calorimetry apparatus, Panlab Harvard apparatus) for 2 days. A METABOLISM software connected with metabolic measurement modules is used for analysis of energy expenditure.

[3] = target: T1, PARIS (Mus musculus, UniProt Q3U133); experiment: Immunoprecipitation analysis for PARIS farnesylation in myoblasts; format: cell-based
T1 construct: endogenous in cells; host or cells: C2C12 myoblasts
Protocol: C2C12 cells are cultured in the presence of farnesol, and cell lysate is subjected to immunoprecipitation. As an experimental group, C2C12 cells are cultured in the presence of 10 uM farnesol for 24 hours, and also cultured in the differentiation medium described in Section 2 of Example 1 for 24 hours by adding 10 uM farnesol according to a culturing schedule, that is, at 0 day, 1 day, 2 days, 3 days, and 4 days (hereinafter, also referred to as ‘D0, D1, D2, D3 and D4’ or ‘D0-D04’). Next, a cell lysis buffer (20 mM Tris-HCl, pH 8, 150 mM NaCl, 1% Triton X, Proteinase Inhibitor) is added to the harvested cells, and cell lysis is allowed under refrigeration for 60 minutes, followed by centrifugation at 13,000 rpm for 20 minutes. A supernatant is removed by 50 uL of protein A/G-agarose in advance, and a target protein antibody is reacted for 12 hours or longer. The resultant is mixed with protein A/G-agarose beads, and stirred for 1 hour. The beads are washed with a cold lysis buffer at a low concentration three times to remove abnormal protein binding. The obtained sample is mixed with a 2×SDS sample buffer (0.125 M Tris-HCl (pH 6.8), 4% SDS, 10% β-mercaptoethanol, 18% glycerol, and 0.1% Bromophenol Blue), and then electrophoresed on 8% SDS-PAGE. […]

[4] = tested on: PARIS; experiment: Immunoprecipitation analysis for PARIS in tibialis anterior muscles; format: in vivo, mouse; conditions: 4-month-old mice fed with farnesol 0, 1, 2, 3 days
Protocol: To examine whether farnesol increases PARIS farnesylation in muscles, immunoprecipitation of PARIS is performed in tibialis anterior muscles of 4-month-old mice (female, 22 g) fed with farnesol for a predetermined period, that is, 0, 1, 2, and 3 days. The tibialis anterior muscles which are removed from the mice fed with farnesol are mixed with a lysis buffer (10 mM Tris-HCl, pH 7.4, 150 mM NaCl, 5 mM EDTA, 1% triton X-100, 10 mM Na-β-glycerophosphate, and Complete Protease Inhibitor Mixture (Roche)), and homogenized using a Diax 900 tissue homogenizer. The tissues are left under refrigeration for 30 minutes, and centrifuged at 52,000 rpm for 20 minutes. A supernatant is used for immunoprecipitation.

[5] = target: T2, human PARIS (WT, C631S) (Homo sapiens, UniProt Q6NUN9); experiment: Immunoprecipitation of PARIS WT and PARIS C631S mutant in C2C12 myoblasts; format: cell-based; conditions: C2C12 with FLAG-PARIS WT, 0.1 uM farnesol, 24 hours
T2 construct: Human full length PARIS cDNA (IMAGE: 30347892); expressed in transfected cells; host or cells: C2C12 myoblasts, pCMV-Tag2A (Stratagene)
Protocol: To examine whether cysteine residues of CGLS sequence (631-634) of an amino acid sequence (SEQ ID NO: 11) of human PARIS are farnesylation sites, a FLAG-PARIS wild-type (WT) gene or a FLAG-PARIS C631S mutant (hereinafter, referred to as “MT”) gene is introduced into C2C12 myoblasts in the presence of DMSO or 0.1 uM farnesol, and the gene is expressed in C2C12 myoblasts by culturing them in DMEM containing 10% FBS for 24 hours. Immunoprecipitation and promoter activity analysis of a cell lysate are performed. The site of amino acid sequence (SEQ ID NO: 10) of mouse PARIS corresponding to CGLS sequence (631-634) of the amino acid sequence (SEQ ID NO: 11) of human PARIS is residues at positions 638-641. This CGLS sequence is conserved in mammals as well as humans and mice, and thus C of CGLS which is located at the C-terminus is a farnesylation site regardless of the length of the sequence.
Human full length PARIS cDNA (IMAGE: 30347892; Open Biosystems) (SEQ ID NO: 9) is cloned into BamH1 and EcoR1 restriction sites of a mammalian gene expression vector, pCMV-Tag2A (Stratagene). The pCMV-Tag2A vector is a plasmid-derived mammalian expression vector for tagging proteins with an N-terminal FLAG epitope. A QuikChange site-directed mutagenesis kit (Stratagene) is used to prepare pCMV-PARIS C631S, in which a PARIS C631S gene mutant obtained by substituting serine for the cysteine residue at position 631 of human PARIS is cloned into BamHI and EcoRI restriction sites of pCMV-Tag2A (Stratagene). After preparation of the mutant gene, the gene is introduced into pCMV to prepare an overexpression vector. To prepare the PARIS C631S gene, a pair of primers (SEQ ID NOS: 12 and 13) is used. Thereafter, a nucleotide sequence of the PARIS C631S gene thus prepared is confirmed by automated DNA sequencing.
In the case of PARIS C631S mutant, no farnesylation occurs. […] In FIG. 5C, − represents C2C12 myoblasts introduced with no PARIS gene, and WT and MT represent C2C12 myoblasts introduced with the wild-type PARIS gene and the mutant PARIS gene, that is, PARIS C631S gene, respectively. […]

[6] = old animal, farnesol diet 4 months

T2 sequence (Q6NUN9 whole entry C631S): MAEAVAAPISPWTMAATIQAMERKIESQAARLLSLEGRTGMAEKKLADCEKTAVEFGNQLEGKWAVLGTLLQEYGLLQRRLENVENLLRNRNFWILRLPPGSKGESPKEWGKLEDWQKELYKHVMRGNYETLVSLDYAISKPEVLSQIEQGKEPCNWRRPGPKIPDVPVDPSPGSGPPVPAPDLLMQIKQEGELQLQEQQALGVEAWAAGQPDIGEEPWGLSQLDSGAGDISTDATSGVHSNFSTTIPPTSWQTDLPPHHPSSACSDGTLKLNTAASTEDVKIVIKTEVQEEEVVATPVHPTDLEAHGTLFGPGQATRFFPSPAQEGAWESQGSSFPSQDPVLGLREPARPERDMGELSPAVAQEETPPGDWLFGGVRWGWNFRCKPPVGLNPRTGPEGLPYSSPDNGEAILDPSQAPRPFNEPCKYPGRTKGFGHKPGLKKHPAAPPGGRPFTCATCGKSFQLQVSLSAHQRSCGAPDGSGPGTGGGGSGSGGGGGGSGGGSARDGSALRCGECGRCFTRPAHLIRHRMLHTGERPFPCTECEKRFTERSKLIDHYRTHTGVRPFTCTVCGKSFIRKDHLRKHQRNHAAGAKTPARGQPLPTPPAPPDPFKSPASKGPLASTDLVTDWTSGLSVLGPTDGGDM
T1 sequence (Q3U133 whole entry): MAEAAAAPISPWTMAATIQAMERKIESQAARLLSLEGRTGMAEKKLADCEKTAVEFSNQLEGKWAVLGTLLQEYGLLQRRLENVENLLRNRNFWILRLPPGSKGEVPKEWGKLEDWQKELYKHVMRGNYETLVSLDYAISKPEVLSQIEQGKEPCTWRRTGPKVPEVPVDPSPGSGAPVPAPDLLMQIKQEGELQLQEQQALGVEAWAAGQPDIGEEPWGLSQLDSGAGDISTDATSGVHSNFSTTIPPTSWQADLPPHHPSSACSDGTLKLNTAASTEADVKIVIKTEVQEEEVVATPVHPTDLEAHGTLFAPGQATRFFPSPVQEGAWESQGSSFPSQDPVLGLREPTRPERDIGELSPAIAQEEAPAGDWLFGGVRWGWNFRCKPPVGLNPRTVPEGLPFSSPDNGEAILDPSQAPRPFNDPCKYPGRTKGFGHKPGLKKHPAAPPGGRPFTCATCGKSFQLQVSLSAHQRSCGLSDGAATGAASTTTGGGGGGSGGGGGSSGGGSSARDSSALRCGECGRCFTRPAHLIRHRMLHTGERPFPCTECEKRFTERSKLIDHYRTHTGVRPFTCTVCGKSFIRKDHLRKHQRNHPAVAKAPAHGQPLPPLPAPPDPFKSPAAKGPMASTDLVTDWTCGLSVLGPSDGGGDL

## CC(C)=CCC/C(C)=C/CC/C(C)=C/CO [farnesol, (2E,6E)-3,7,11-trimethyldodeca-2,6,10-trien-1-ol]
[1]; [6]
  GA muscle mass: 0.099 g
  heart mass (versus control old animal): 0.156 g
  lean mass: 15.3 g
[1]; old animals, farnesol diet 4 months
  side effects such as muscular hypertrophy: does not cause side effects such as muscular hypertrophy
[1]; printed as farnesol old animal, compared with control young animal
  heart mass (versus control young animal): 0.115 g
[2]
  energy expenditure: significantly increased
[3]; 10 uM farnesol, D0-D4
  farnesylated PARIS level: further increases
[3]; 10 uM farnesol-treated myoblasts
  PGC-1α expression: increased
[4]
  farnesylated PARIS level in tibialis anterior muscle: further increases
[5]
  PGC-1α level, PARIS WT: PGC-1α increase
  farnesylation of PARIS WT: increased
